Data reported in patent US20250019385A1, “SPIROCYCLIC ANNULATED 2-AMINO-3-CYANO THIOPHENES AND DERIVATIVES FOR THE TREATMENT OF CANCER” (Boehringer Ingelheim International GmbH, priority 2023, published 2025).

Legend:
[1] = molecular target: KRAS (G12D)::SOS1 protein-protein interaction (Homo sapiens (Human), UniProt P01116, G12D); test: KRAS::SOS1 AlphaScreen binding assay (KRAS G12D); conditions: GDP
Text: (§1) This assay can be used to examine the potency with which compounds according to the invention binding to (mutated) KRAS inhibit the protein-protein interaction between SOS1 and (mutated) KRAS e.g. KRAS G12C, KRAS G12D. […] Low IC50 values in this assay setting are indicative of strong inhibition of protein-protein interaction between SOS1 and KRAS:
(§2) These assays measure the inhibitory effect of compounds on KRAS mutant protein-protein interactions using the Alpha Screen technology by Perkin Elmer.
(§3) The following (mutant) enzyme forms of KRAS and interacting proteins are used in these assays at the given concentrations:
KRAS (G12D) 1-169, N-terminal 6His-tag, C-terminal avi-tag (Xtal BioStructures, Inc.); final assay concentration 10 nM and SOS1 564-1049, N-terminal 229 GST-tag, TEV cleavage site (Viva Biotech Ltd); final assay concentration 5 nM;
(§4) Test compounds dissolved in DMSO are dispensed onto assay plates (Proxiplate 384 PLUS, white, PerkinElmer; 6008289) using an Access Labcyte Workstation with the Labcyte Echo 55x. For the chosen highest assay concentration of 100 μM, 150 nL of compound solution are transferred from a 10 mM DMSO compound stock solution. A series of eleven fivefold dilutions per compound are transferred to the assay plate, compound dilutions are tested in duplicates. DMSO are added as backfill to a total volume of 150 nL.
(§5) The assays run on a fully automated robotic system in a darkened room below 100 Lux. To 150 nl of compound dilution 10 μl of a mix including KRAS mutant protein, SOS1 (final assay concentrations see above) and GDP nucleotide (Sigma G7127; final assay concentration 10 μM) in assay buffer (1×PBS, 0.1% BSA, 0.05% Tween 20) are added into columns 1-24.
(§6) After 30 minutes incubation time 5 μl of Alpha Screen bead mix in assay buffer are added into columns 1-23. Bead mix consists of AlphaLISA Glutathione Acceptor Beads (PerkinElmer, Cat No AL109) and AlphaScreen Streptavidin Donor Beads (PerkinElmer Cat No 6760002) in assay buffer at a final assay concentration of 10 μg/mL each.
(§7) Plates are kept at room temperature in a darkened incubator. After an additional 60 minutes incubation time the signal is measured in a PerkinElmer Envision HTS Multilabel Reader using the AlphaScreen specs from PerkinElmer.
(§8) Each plate contains up to 16 wells of a negative control depending on the dilution procedure (platewise or serial) (DMSO instead of test compound; with KRAS mutant::SOS1 GOP mix and bead mix; column 23) and 16 wells of a positive control (DMSO instead of test compound; with KRAS mutant::SOS1 GOP mix w/o bead mix; column 24).
(§9) As internal control known inhibitors of KRAS mutant::SOS1 interaction can be measured on each compound plate.
(§10) IC50 values are calculated and analyzed with Boehringer Ingelheim's MEGALAB C50 application using a 4 parametric logistic model.
(§11) Tables of example compounds disclosed herein contain IC50 values determined using the above assays (see Table 43).

[2] = molecular target: KRAS (G12C)::SOS1 protein-protein interaction (Homo sapiens (Human), UniProt P01116, C118S/C51S/C80L/G12C); test: KRAS::SOS1 AlphaScreen binding assay (KRAS G12C); conditions: GDP
KRAS (G12C)::SOS1 protein-protein interaction, sequence (P01116 other isoform, or with tags, fused parts or gaps G12C/C51S/C80L/C118S): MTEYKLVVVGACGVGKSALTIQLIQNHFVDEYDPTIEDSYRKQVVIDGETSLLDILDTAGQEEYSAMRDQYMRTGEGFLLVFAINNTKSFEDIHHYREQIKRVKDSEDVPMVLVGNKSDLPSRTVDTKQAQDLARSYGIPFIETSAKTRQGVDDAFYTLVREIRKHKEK
Text: as §1, §2, §3
KRAS (G12C) 1-169, N-terminal 6His-tag for purification, cleaved off, C-terminal avi-tag, biotinylated, mutations: C51S, C80L, C118S (in house); final assay concentration 7.5 nM and SOS1 564-1049, N-terminal 229 GST-tag, TEV cleavage site (Viva Biotech Ltd); final assay concentration 5 nM;
as §4, §5, §6, §7, §8, §9, §10, §11

[3] = tested on: AsPC-1 cells; test: AsPC-1 CTG proliferation assay (120 h) (pancreatic cancer, G12D); assay type: cell-based; conditions: Homo sapiens, ASPC1
Protocol: (§12) AsPC-1 cells (ATCC CRL-1682) are dispensed into black 384-well plates, flat and clear bottom (Greiner, PNr. 781091) at a density of 500 cells per well in 60 μl RPMI ATCC-Formulation (PAN P04-18047)+10% FCS (fetal calf serum, HyClone, SH30084.03). Cells are incubated overnight at 37° C. in a humidified tissue culture incubator at 5% CO2. Compounds (10 mM stock in DMSO) are added at logarithmic dose series using the ECHO acoustic liquid handler system (Beckman Coulter), normalizing for added DMSO and including DMSO controls. All compound treatments are performed in technical duplicates. For the TO time point measurement, untreated cells are analyzed at the time of compound addition. Plates are incubated for 120 h, and cell viability is measured using CellTiter-Glo luminescent cell viability reagent (Promega product code G7570). Viability (stated as percent of control) is defined as relative luminescence units RLU of each well divided by the RLU of cells in DMSO controls. IC50 values are determined from viability measurements by non-linear regression using a four-parameter model.
(§13) IC50 values of representative compounds according to the invention measured with these assays in the indicated cell lines are presented in Table 46.

[4] = tested on: LOVO cells; test: LOVO CTG proliferation assay (120 h) (CRC, G13D); assay type: cell-based; conditions: Homo sapiens
Protocol: as §12, with “LOVO” for “AsPC-1”, “No. CCL-229)” for “CRL-1682)”, “1000” for “500”, “DMEM (Sigma D6429)+10%” for “RPMI ATCC-Formulation (PAN P04-18047)+10%”
as §13

KRAS (G12D)::SOS1 protein-protein interaction, sequence (P01116 other isoform, or with tags, fused parts or gaps G12D): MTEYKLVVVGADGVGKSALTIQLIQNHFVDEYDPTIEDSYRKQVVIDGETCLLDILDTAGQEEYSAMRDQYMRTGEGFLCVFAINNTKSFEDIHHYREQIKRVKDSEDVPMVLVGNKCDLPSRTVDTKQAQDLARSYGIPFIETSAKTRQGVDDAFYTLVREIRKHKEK

Compound | IC50 [1] [nM] | IC50 [2] [nM] | IC50 [3] [nM] | IC50 [4] [nM]
C[C@H](Oc1nc(-c2noc3c2CCC[C@@]32CCCc3sc(N)c(C#N)c32)nc2c1CCCO[C@]21CCOC1)[C@@H]1CCCN1C [II-10] | 1 | 1 | 264 | 11
C[C@H](Oc1nc(-c2onc3c2CCC[C@@]32CCCc3sc(N)c(C#N)c32)nc2c1n(C)c(=O)n2C1COC1)[C@@H]1CCCN1C [I-24] | 3 | 2 | 2760 | 235
C[C@H](Oc1nc(-c2noc3c2CCC[C@@]32CCCc3sc(N)c(C#N)c32)nc2c1n(C)c(=O)n2[C@@H]1CCOC1)[C@@H]1CCCN1C [II-2] | 1 | 1 | 338 | 8
C[C@H](Oc1nc(-c2noc3c2CCC[C@@]32CCCc3sc(N)c(C#N)c32)nc2c1CN(C1COC1)C[C@]21CCOC1)[C@@H]1CC[C@H](C)N1C [II-17] | 1 |  | 237 | 109
C[C@H](Oc1nc(-c2onc3c2CCC[C@@]32CCCc3sc(N)c(C#N)c32)nc2c1n(C)c(=O)n2[C@@H]1CCOC1)C12CCCN1CCC2 [I-25] | 2 | 2 | 1300 | 55
CCn1c(=O)n([C@@H]2CCCOC2)c2nc(-c3onc4c3CCC[C@@]43CCCc4sc(N)c(C#N)c43)nc(OCC3(CN4CCCC4)CC3)c21 [I-35] | 7 | 2 | 4250 | 120
CO[C@@H]1C[C@@H]([C@H](C)Oc2nc(-c3noc4c3CCC[C@@]43CCCc4sc(N)c(C#N)c43)nc3c2COC[C@]32CCOC2)N(C)C1 [II-11] | 1 | 2 | 81 | 6
C[C@H](Oc1nc(-c2onc3c2CCC[C@@]32CCCc3sc(N)c(C#N)c32)nc2c1n(C)c(=O)n2[C@@H]1CCOC1)[C@@H]1C[C@H](F)CN1C [I-27] | 2 | 2 | 2300 | 52
C[C@H](Oc1nc(-c2onc3c2CCC[C@@]32CCCc3sc(N)c(C#N)c32)nc2c1CN(C1COC1)C[C@]21CCOC1)[C@@H]1CCCN1C [I-56] | 1 |  | 92 | 43
CO[C@H]1CCN(C)[C@@H]1[C@H](C)Oc1nc(-c2onc3c2CCC[C@@]32CCCc3sc(N)c(C#N)c32)nc2c1n(C)c(=O)n2[C@@H]1CCOC1 [I-23] | 1 | 1 | 540 | 10
CO[C@H]1CCN(C)[C@@H]1[C@H](C)Oc1nc(-c2onc3c2CCC[C@@]32CCCc3sc(N)c(C#N)c32)nc2c1CN(C1COC1)C[C@]21CCOC1 [I-57] | 1 |  | 129 | 39
Cc1cn([C@@H]2CCOC2)c2nc(-c3onc4c3CCC[C@@]43CCCc4sc(N)c(C#N)c43)nc(O[C@@H](C)[C@@H]3CCCN3C)c12 [I-41] | 3 | 4 | 980 | 348
C[C@H](Oc1nc(-c2onc3c2CCC[C@@]32CCCc3sc(N)c(C#N)c32)nc2c1n(C)c(=O)n2[C@H]1CO[C@@H](C)C1)[C@@H]1CCCN1C [I-47] | 1 |  |  | 
CO[C@@H]1C[C@@H]([C@H](C)Oc2nc(-c3noc4c3CCC[C@@]43CCCc4sc(N)c(C#N)c43)nc3c2n(C)c(=O)n3[C@@]23COC[C@@H]2C3)N(C)C1 [II-6] | 1 |  | 265 | 11
C[C@H](Oc1nc(-c2onc3c2CCC[C@@]32CCCc3sc(N)c(C#N)c32)nc2c1CN(C1COC1)C[C@]21CCOC1)[C@@H]1CC[C@H](C)N1C [I-55] | 1 |  | 202 | 26
C[C@H](Oc1nc(-c2noc3c2CCC[C@@]32CCCc3sc(N)c(C#N)c32)nc2c1CN(C1COC1)C[C@]21CCOC1)[C@@H]1CCCN1C [II-12] | 1 |  | 129 | 71
C[C@H](Oc1nc(-c2noc3c2CCC[C@@]32SCCc3sc(N)c(C#N)c32)nc2c1COC[C@]21CCOC1)[C@@H]1CCCN1C [II-16] | 1 |  | 34 | 7
CO[C@@H]1C[C@@H]([C@H](C)Oc2nc(-c3onc4c3CCC[C@@]43CCCc4sc(N)c(C#N)c43)nc3c2n(C)c(=O)n3[C@@]23COC[C@@H]2C3)N(C)C1 [I-46] | 1 |  | 292 | 21
C[C@H](Oc1nc(-c2onc3c2CCC[C@@]32CCCc3sc(N)c(C#N)c32)nc2c1n(C)c(=O)n2[C@H]1CO[C@@H](C)C1)[C@@H]1CC[C@H](C)N1C [I-50] | 4 |  |  | 
C[C@H](Oc1nc(-c2noc3c2CCC[C@@]32CCCc3sc(N)c(C#N)c32)nc2c1n(C)c(=O)n2[C@H]1CO[C@@H](C)C1)[C@@H]1CCCN1C [II-5] | 1 |  | 40 | 3
CO[C@@H]1C[C@@H]([C@H](C)Oc2nc(-c3onc4c3CCC[C@@]43CCCc4sc(N)c(C#N)c43)nc3c2n(C)c(=O)n3[C@H]2COC[C@@H](C)C2)N(C)C1 [I-52] | 1 |  |  | 
CO[C@@H]1C[C@@H]([C@H](C)Oc2nc(-c3onc4c3CCC[C@@]43CCCc4sc(N)c(C#N)c43)nc3c2CN(C2COC2)C[C@]32CCOC2)N(C)C1 [I-58] | 1 |  | 314 | 84
CO[C@H]1CCN(C)[C@@H]1[C@H](C)Oc1nc(-c2noc3c2CCC[C@@]32CCCc3sc(N)c(C#N)c32)nc2c1CN(C1COC1)C[C@]21CCOC1 [II-13] | 1 |  | 43 | 8
CO[C@H]1CCN(C)[C@@H]1[C@H](C)Oc1nc(-c2onc3c2CCC[C@@]32CCCc3sc(N)c(C#N)c32)nc2c1n(C)c(=O)n2[C@H]1COC[C@@H](C)C1 [I-51] | 2 |  |  | 
C[C@H](Oc1nc(-c2onc3c2CCC[C@@]32CCCc3sc(N)c(C#N)c32)nc2c1n(C)c(=O)n2[C@@]12COC[C@@H]1C2)[C@@H]1CC[C@H](C)N1C [I-45] | 1 |  | 286 | 9
CO[C@@H]1C[C@@H]([C@H](C)Oc2nc(-c3noc4c3CCC[C@@]43CCCc4sc(N)c(C#N)c43)nc3c2CN(C2COC2)C[C@]32CCOC2)N(C)C1 [II-14] | 1 |  | 57 | 18
